Measurements published in US12195427B2, “MASP-2 inhibitors and methods of use” (priority 2018, dated 2025).

Target: MASP-2 CCP2-SP (Homo sapiens (Human), UniProt O00187)
Assay: MASP-2 co-crystallization, X-ray crystallography and structure analysis (H-bonds, van der Waals contacts);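 on Ligand-pharmacophore element distance, pharmacophore element C2: distance from averaged pharmacophore element to bound ligand; missing value means element absent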;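 on Ligand-pharmacophore element distance, pharmacophore element C3: distance from averaged pharmacophore element to bound ligand; missing value means element absent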;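 on Ligand-pharmacophore element distance, pharmacophore element C4: distance from averaged pharmacophore element to bound ligand; missing value means element absent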;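 on Ligand-pharmacophore element distance, pharmacophore element C5: distance from averaged pharmacophore element to bound ligand; missing value means element absent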
Parameters: van der Waals contact distance, MASP-2 HIS 483 atom CD2 / van der Waals contact distance, MASP-2 HIS 483 atom NE2 / van der Waals contact distance, SER 654 C to compound atom / van der Waals contact distance, SER 654 O to compound atom / van der Waals contact distance, TRP 655 C to compound atom / van der Waals contact distance, MASP-2 GLY 528 atom CA / van der Waals contact distance TRP 655 atom CZ3 / van der Waals contact distance TRP 655 atom N / van der Waals contact distance TRP 655 atom CE3 / van der Waals contact distance GLY 656 atom C / van der Waals contact distance GLY 656 atom CA / van der Waals contact distance GLY 656 atom O / van der Waals contact distance, MASP-2 TYR 607 atom CD1 / van der Waals contact distance, MASP-2 PRO 606 atom O / d(C3,CA1) / d(CA1,N1)2 / d(H4,O1) / d(H4,O2) / d(O1,O2) / d(CA1,O2) / d(CA6,O1) / d(CA6,O2) / d(CA1,C5) / d(O2,H3) / d(N2,C2) / d(CA5,N2) / d(N2,C4) / d(N2,C6) / d(N2,CA3) / d(N2,O3) / d(O4,H2): unit not given beside the values
Conditions: for Ligand-pharmacophore element distance, pharmacophore element C2 / Ligand-pharmacophore element distance, pharmacophore element C3 / Ligand-pharmacophore element distance, pharmacophore element C4 / Ligand-pharmacophore element distance, pharmacophore element C5 / Ligand-pharmacophore element distance, pharmacophore element C6 / Ligand-pharmacophore element distance, pharmacophore element C7 / Ligand-pharmacophore element distance, pharmacophore element CA1 / Ligand-pharmacophore element distance, pharmacophore element CA2 / Ligand-pharmacophore element distance, pharmacophore element CA3 / Ligand-pharmacophore element distance, pharmacophore element CA4 / Ligand-pharmacophore element distance, pharmacophore element CA5 / Ligand-pharmacophore element distance, pharmacophore element CA6: Table A4-1; for d(N2,C2) / d(N2,CA2) / d(O2,H3) / d(O2,N2): Table A5-2 pharmacophore distance, S3/S4 region; for a(O2, N2, C2) / a(O2, N2, CA2) / a(O1, O2, H3) / a(O1, O2, N2): Table A6-2 pharmacophore angle; for Pharmacophore protein distance to MET_658 (first MET_658 column) / Pharmacophore protein distance to MET_658 (second MET_658 column) / Pharmacophore protein distance to GLY_528 / Pharmacophore protein distance to PHE_529 / Pharmacophore protein distance to PRO_608 / Pharmacophore protein distance to SER_611 / Pharmacophore protein distance to TRP_655: Table A8-6, nearest protein atom in cell to the left; for Pharmacophore protein distance to MET_658 (first MET_658 column): 6th residue column; for Pharmacophore protein distance to MET_658 (second MET_658 column): 9th residue column; for Pharmacophore protein distance to TRP_655: pharmacophore elements C6, CA3, O3, H1; for a(C5, CA1, O1) / a(CA1, O1, O2) / a(CA1, O4, H2) / a(O1, CA1, O4) / a(O1, O2, H4): Table A6-1 pharmacophore angle; for Pharmacophore torsion angle a(C5, CA1, O1, H4) / Pharmacophore torsion angle a(H4, O1, O2, H3) / Pharmacophore torsion angle a(H4, O1, O2, N2) / Pharmacophore torsion angle a(O1, H4, O2, CA1) / Pharmacophore torsion angle a(O1, O2, N2, C2): Table A7-1; for Pharmacophore torsion angle a(C5, CA1, O1, H4) / Pharmacophore torsion angle a(H4, O1, O2, H3) / Pharmacophore torsion angle a(H4, O1, O2, N2) / Pharmacophore torsion angle a(O1, H4, O2, CA1) / Pharmacophore torsion angle a(O1, O2, N2, C2) / Pharmacophore torsion angle a(O1, O2, N2, CA2): between pharmacophore elements of the bound compound; for Pharmacophore torsion angle a(O1, O2, N2, CA2): Table A7-2
Source text: This example illustrates the preparation of recombinant MASP-2 protein, based on UniProt O00187, human mannan-binding lectin serine protease 2. Expression constructs for human MASP-2 CCP2-SP and CCP2-SP-6HIS were generated for recombinant expression in E. coli cells.
Typically, crystallization hits were obtained by screening against […] 96-well crystallization reagent kits (GRAS6, GRAS2, Hampton Research; MORPHEUS, Molecular Dimensions; Wizard 1&2 Cryo, Rigaku Reagents) and crystal growth was inspected by optical microscopy. Crystals were used directly or further optimized for X-ray diffraction. Crystals were captured with cryogenic loops and dipped into liquid nitrogen directly or cryoprotected with a 20% glycerol in crystallization formulation before flash-cooling in liquid nitrogen.
Thereafter crystals are transferred once or twice for soaking within the crystallization solution containing the MASP-2 inhibitor.
Crystals were diffracted with synchrotron X-rays of […] and X-ray diffraction datasets were collected at beamlines SSRL BL9-2, BL14-1, BL12-2 as well as ALS sector 5 using Dectris Pilatus and Eiger detectors. Structures were determined by molecular replacement using portions of the structure 1Q3X as search models and partially refined with Buster 2.10.2 or Refmac 5.8. […] When multiple ligand poses were observed, for instance arising from multiple molecules in the asymmetric unit or refined dual poses within the same molecule, only one pose was selected and analyzed.
LigPlot+ calls these ‘nonbonded contacts’ or ‘hydrophobic contacts’. Despite the name, there are atom pairings that include possible H-bonds. Thus, in some instances, the Table A2 also contains H-bond interactions.

[1] = Table A5-1 pharmacophore: distance between elements, S2/S1 region

Chain of MASP-2 CCP2-SP (O00187 445-686): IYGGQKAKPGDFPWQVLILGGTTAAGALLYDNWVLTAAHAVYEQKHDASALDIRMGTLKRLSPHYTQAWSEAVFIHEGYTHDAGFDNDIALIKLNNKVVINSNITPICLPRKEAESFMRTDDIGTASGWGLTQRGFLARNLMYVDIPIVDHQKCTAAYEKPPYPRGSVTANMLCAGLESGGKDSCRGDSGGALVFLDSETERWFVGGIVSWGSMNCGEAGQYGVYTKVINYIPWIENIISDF
Chain of MASP-2 CCP2-SP (O00187 364-432 partner): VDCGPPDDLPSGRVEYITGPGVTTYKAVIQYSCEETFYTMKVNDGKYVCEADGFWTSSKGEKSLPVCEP

C[C@H](NC(=O)[C@H](N)CCCc1ccccc1)C(=O)NCc1ccc(C(=N)N)cc1.Cl.Cl [1042_3]
Ligand-pharmacophore element distance, pharmacophore element C2: 2.05 | Ligand-pharmacophore element distance, pharmacophore element C3: 0 | Ligand-pharmacophore element distance, pharmacophore element C4: 0 | Ligand-pharmacophore element distance, pharmacophore element C5: 0 | Ligand-pharmacophore element distance, pharmacophore element C6: 0 | Ligand-pharmacophore element distance, pharmacophore element C7: 0 | Ligand-pharmacophore element distance, pharmacophore element CA1: 0.5 | Ligand-pharmacophore element distance, pharmacophore element CA2: 1.65 | Ligand-pharmacophore element distance, pharmacophore element CA3: 0 | Ligand-pharmacophore element distance, pharmacophore element CA4: 0 | Ligand-pharmacophore element distance, pharmacophore element CA5: 0 | Ligand-pharmacophore element distance, pharmacophore element CA6: 0 | d(CA1,N1) [1]: 3.63 | d(CA1,O2) [1]: 4.54 | d(H4,O2) [1]: 4.90 | d(N2,C2): 3.55 | d(N2,CA2): 6.60 | d(O2,H3): 6.75 | d(O2,N2): 4.11 | a(O2, N2, C2): 129.44 | a(O2, N2, CA2): 145.75 | Pharmacophore protein distance to MET_658 (first MET_658 column): 2.74 | Pharmacophore protein distance to MET_658 (second MET_658 column): 4.20 | Pharmacophore protein distance to GLY_528: 2.99 | Pharmacophore protein distance to PHE_529: 2.42 | Pharmacophore protein distance to PRO_608: 4.06 | Pharmacophore protein distance to SER_611: 2.32 | Pharmacophore protein distance to TRP_655: 3.21

C[C@H](NC(=O)[C@H]1C[C@@H](c2ccccc2)CCN1)C(=O)NCc1cc(Cl)ccc1O.Cl [1078_1]
Ligand-pharmacophore element distance, pharmacophore element C2: 0.69 | Ligand-pharmacophore element distance, pharmacophore element C3: 0 | Ligand-pharmacophore element distance, pharmacophore element C4: 0 | Ligand-pharmacophore element distance, pharmacophore element C5: 0.4 | Ligand-pharmacophore element distance, pharmacophore element C6: 0 | Ligand-pharmacophore element distance, pharmacophore element C7: 0 | Ligand-pharmacophore element distance, pharmacophore element CA1: 1.58 | Ligand-pharmacophore element distance, pharmacophore element CA2: 0.48 | Ligand-pharmacophore element distance, pharmacophore element CA3: 0 | Ligand-pharmacophore element distance, pharmacophore element CA4: 0 | Ligand-pharmacophore element distance, pharmacophore element CA5: 0 | Ligand-pharmacophore element distance, pharmacophore element CA6: 0 | d(CA1,C5) [1]: 3.12 | d(CA1,O1) [1]: 4.56 | d(CA1,O2) [1]: 4.72 | d(CA1,O4) [1]: 2.75 | d(H4,O1) [1]: 2.29 | d(H4,O2) [1]: 2.61 | d(O1,O2) [1]: 3.05 | d(O4,H2) [1]: 0.97 | d(N2,C2): 1.48 | d(N2,CA2): 5.74 | d(O2,H3): 2.93 | d(O2,N2): 2.77 | a(C5, CA1, O1): 160.22 | a(CA1, O1, O2): 111.94 | a(CA1, O4, H2): 126.79 | a(O1, CA1, O4): 68.03 | a(O1, O2, H4): 103.21 | a(O1, O2, H3): 141.96 | a(O1, O2, N2): 145.93 | a(O2, N2, C2): 121.70 | a(O2, N2, CA2): 154.68 | Pharmacophore torsion angle a(C5, CA1, O1, H4): 25.08 | Pharmacophore torsion angle a(H4, O1, O2, H3): −119.94 | Pharmacophore torsion angle a(H4, O1, O2, N2): −112.97 | Pharmacophore torsion angle a(O1, H4, O2, CA1): −60.12 | Pharmacophore torsion angle a(O1, O2, N2, C2): 138.25 | Pharmacophore torsion angle a(O1, O2, N2, CA2): 140.46 | Pharmacophore protein distance to MET_658 (first MET_658 column): 2.97 | Pharmacophore protein distance to MET_658 (second MET_658 column): 3.50 | Pharmacophore protein distance to GLY_528: 3.66 | Pharmacophore protein distance to PHE_529: 3.30 | Pharmacophore protein distance to PRO_608: 3.85 | Pharmacophore protein distance to SER_611: 2.41 | Pharmacophore protein distance to TRP_655: 3.68

C[C@H](NC(=O)[C@H]1C[C@@H](c2ccccc2)CCN1)C(=O)NCc1cc(Cl)ccc1O.Cl [1078_2]
Ligand-pharmacophore element distance, pharmacophore element C2: 0.61 | Ligand-pharmacophore element distance, pharmacophore element C3: 0 | Ligand-pharmacophore element distance, pharmacophore element C4: 0 | Ligand-pharmacophore element distance, pharmacophore element C5: 0.46 | Ligand-pharmacophore element distance, pharmacophore element C6: 0 | Ligand-pharmacophore element distance, pharmacophore element C7: 0 | Ligand-pharmacophore element distance, pharmacophore element CA1: 1.55 | Ligand-pharmacophore element distance, pharmacophore element CA2: 0.61 | Ligand-pharmacophore element distance, pharmacophore element CA3: 0 | Ligand-pharmacophore element distance, pharmacophore element CA4: 0 | Ligand-pharmacophore element distance, pharmacophore element CA5: 0 | Ligand-pharmacophore element distance, pharmacophore element CA6: 0 | d(CA1,C5) [1]: 3.12 | d(CA1,O1) [1]: 4.69 | d(CA1,O2) [1]: 4.62 | d(CA1,O4) [1]: 2.75 | d(H4,O1) [1]: 2.19 | d(H4,O2) [1]: 2.44 | d(O1,O2) [1]: 3.25 | d(O4,H2) [1]: 0.97 | d(N2,C2): 1.44 | d(N2,CA2): 5.72 | d(O2,H3): 2.53 | d(O2,N2): 2.72 | a(C5, CA1, O1): 159.94 | a(CA1, O1, O2): 109.26 | a(CA1, O4, H2): 128.74 | a(O1, CA1, O4): 65.74 | a(O1, O2, H4): 91.16 | a(O1, O2, H3): 141.98 | a(O1, O2, N2): 146.00 | a(O2, N2, C2): 128.07 | a(O2, N2, CA2): 155.89 | Pharmacophore torsion angle a(C5, CA1, O1, H4): 38.04 | Pharmacophore torsion angle a(H4, O1, O2, H3): −132.87 | Pharmacophore torsion angle a(H4, O1, O2, N2): −119.25 | Pharmacophore torsion angle a(O1, H4, O2, CA1): −57.88 | Pharmacophore torsion angle a(O1, O2, N2, C2): 127.17 | Pharmacophore torsion angle a(O1, O2, N2, CA2): 137.47
